Results as given in the supplement of paper PMC11061612.

What was measured:
TGW (Neuroblastoma) = assay: Bliss excess, mean over the matrix (fraction); higher = more synergy
How it was run: (§1)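 Bliss excess equals the observed combination effect minus the expected value EA + EB − EA·EB, where EA and EB are the effects of each agent alone. Combination Emax is the second-highest inhibition within the matrix. Inhibition was scaled from CellTiter-Glo 2.0 luminescence, with 0 set by vehicle wells and 1 by blank wells, after 72 hours of two-drug dosing of cells plated in 1536-well plates.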

[1] = tested on: KMOE-2 (Acute Myeloid Leukemia); assay: as above
How it was run: as §1

[2] = tested on: C-4-I (Cervical Carcinoma); assay: as above
How it was run: as §1

[3] = tested on: OVCAR-4 (Ovarian Carcinoma); assay: as above
How it was run: as §1

[4] = tested on: Ca9-22 (Head and Neck Carcinoma); assay: as above
How it was run: as §1

PWR-1E (Non-Cancerous) = assay: as above
How it was run: as §1

[5] = tested on: HGC-27 (Gastric Carcinoma); assay: as above
How it was run: as §1

[6] = tested on: VA-ES-BJ (Other Solid Carcinomas); assay: as above
How it was run: as §1

[7] = tested on: OE19 (Esophageal Adenocarcinoma); assay: as above
How it was run: as §1

[8] = tested on: NUGC-3 (Gastric Carcinoma); assay: as above
How it was run: as §1

[9] = tested on: LU-65 (Non-Small Cell Lung Carcinoma); assay: as above
How it was run: as §1

[10] = tested on: HSC-4 (Oral Cavity Carcinoma); assay: as above
How it was run: as §1

EW-24 (Ewing's Sarcoma) = assay: as above
How it was run: as §1

[11] = tested on: NEC8 (Other Solid Carcinomas); assay: as above
How it was run: as §1

ACHN (Kidney Carcinoma) = assay: as above
How it was run: as §1

[12] = tested on: KYSE-450 (Esophageal Squamous Cell Carcinoma); assay: as above
How it was run: as §1

[13] = tested on: NCI-H358 (Lung Adenocarcinoma); assay: as above
How it was run: as §1

[14] = tested on: OSC-20 (Oral Cavity Carcinoma); assay: as above
How it was run: as §1

[15] = tested on: Hs-766T (Pancreatic Carcinoma); assay: as above
How it was run: as §1

[16] = tested on: EoL-1-cell (Acute Myeloid Leukemia); assay: combination Emax (second highest fraction inhibited in the dose matrix, 72 h); higher = more inhibition; extreme values may be limits of the assay
How it was run: as §1

SMILES	Bliss excess (TGW (Neuroblastoma))	Bliss excess [1]	Bliss excess [2]	Bliss excess [3]	Bliss excess [4]	Bliss excess (PWR-1E (Non-Cancerous))	Bliss excess [5]	Bliss excess [6]	Bliss excess [7]	Bliss excess [8]	Bliss excess [9]	Bliss excess [10]	Bliss excess (EW-24 (Ewing's Sarcoma))	Bliss excess [11]	Bliss excess (ACHN (Kidney Carcinoma))	Bliss excess [12]	Bliss excess [13]	Bliss excess [14]	Bliss excess [15]	combination Emax [16]
COc1cccc(OCCCN)c1-c1cc(Nc2cnc(C#N)cn2)n[nH]1 [Prexasertib] + CCc1c2c(nc3ccc(O)cc13)-c1cc3c(c(=O)n1C2)COC(=O)[C@]3(O)CC [SN-38] (first compound max 1 µM, 7x7, partner max 0.3 µM)	-0.0284	0.0296	0.0026	0.0476	0.0163	0.0309	0.0388	-0.044	0.129	0.0136	-0.0185	-0.0372	-0.0615	0.0129	-0.0755	0.19	-0.0212	-0.0477	-0.0063	0.996
COc1cccc(OCCCN)c1-c1cc(Nc2cnc(C#N)cn2)n[nH]1 [Prexasertib] + CN(C)CCCOc1ccc(-c2ccc3ncc4c(c3c2)n(C2CCOCC2)c(=O)n4C)cn1 [AZD0156] (first compound max 1 µM, 7x7, partner max 1 µM)	-0.0253	-0.0363	-0.0273	0.0086	-0.0123	-0.0276	-0.0193	-0.0395	0.0198	0.0083	-0.023	-0.0079	-0.0082	-0.009	-0.0318	-0.0713	-0.034	-0.0111	-0.0062	0.998
COc1cccc(OCCCN)c1-c1cc(Nc2cnc(C#N)cn2)n[nH]1 [Prexasertib] + C[C@@H]1COCCN1C2=NC(=NC(=C2)C3(CC3)[S@](=N)(=O)C)C4=C5C=CNC5=NC=C4 [AZD6738] (first compound max 1 µM, 7x7, partner max 10 µM)	-0.019	-0.0043	-0.0449	-0.025	-0.0024	0.0243	-0.057	-0.0114	-0.0277	-0.019	-0.0173	0.0305	-0.0522	-0.009	-0.0503	0.0135	-0.021	-0.0583	0.0101	0.996
COc1cccc(OCCCN)c1-c1cc(Nc2cnc(C#N)cn2)n[nH]1 [Prexasertib] + Cc1cc2ncnn2cc1Nc1ncc2c(n1)n(C1CCOCC1)c(=O)n2C [AZD7648] (first compound max 1 µM, 7x7, partner max 10 µM)	-0.0512	0.0172	0.0005	-0.0739	-0.0231	-0.0243	-0.0235	0.013	-0.0291	-0.0129	-0.0099	-0.0421	-0.0019	0	-0.0182	-0.0017	-0.0438	0.0115	0.0183	0.998
COc1cccc(OCCCN)c1-c1cc(Nc2cnc(C#N)cn2)n[nH]1 [Prexasertib] + O=C(c1cc(Cc2n[nH]c(=O)c3ccccc23)ccc1F)N1CCN(C(=O)C2CC2)CC1 [Olaparib] (first compound max 1 µM, 7x7, partner max 10 µM)	-0.0665	0.0279	-0.0783	-0.0589	-0.007	-0.211	0.044	-0.0337	-0.125	-0.143	-0.0678	0.029	-0.0292	0.0104	-0.0857	-0.025	-0.0809	-0.013	-0.032	1
CCc1c2c(nc3ccc(O)cc13)-c1cc3c(c(=O)n1C2)COC(=O)[C@]3(O)CC [SN-38] + CN(C)CCCOc1ccc(-c2ccc3ncc4c(c3c2)n(C2CCOCC2)c(=O)n4C)cn1 [AZD0156] (first compound max 0.3 µM, 7x7, partner max 1 µM)	0.0047	-0.0089	0.115	-0.0149	0.0332	0.0948	0.077	-0.0165	0.159	0.0085	-0.0148	-0.0346	-0.0189	-0.0228	-0.0134	0.0937	0.0282	-0.0083	-0.0147	0.995
Cn1cnc2c(F)c(Nc3ccc(Br)cc3Cl)c(C(=O)NOCCO)cc21 [Selumetinib] + C=CCn1c(=O)c2cnc(Nc3ccc(N4CCN(C)CC4)cc3)nc2n1-c1cccc(C(C)(C)O)n1 [AZD1775] (first compound max 10 µM, partner max 1 µM)	-0.0219	0.0111	0.0083	-0.0698	0.0321	-0.0663	-0.052	-0.112	-0.132	-0.0757	0.0065	-0.041	-0.0025	0.0185	-0.0527	-0.037	-0.0471	-0.019	-0.0559	1
Cn1cnc2c(F)c(Nc3ccc(Br)cc3Cl)c(C(=O)NOCCO)cc21 [Selumetinib] + CC(C)n1c(=O)n(C)c2cnc3cc(F)c(-c4ccc(OCCCN5CCCCC5)nc4)cc3c21 [AZD1390] (first compound max 10 µM, 7x7, partner max 0.3 µM)	-0.0393	0.0296	-0.0078	-0.0512	0.0337	-0.0467	-0.0129	-0.0471	-0.0326	-0.0347	0.0027	-0.085	-0.0594	-0.0268	0.0389	-0.0416	-0.03	-0.0269	-0.0215	0.762
Cn1cnc2c(F)c(Nc3ccc(Br)cc3Cl)c(C(=O)NOCCO)cc21 [Selumetinib] + CCN(CCO)CCCOc1ccc2c(Nc3cc(CC(=O)Nc4cccc(F)c4)[nH]n3)ncnc2c1 [AZD2811] (first compound max 10 µM, 7x7, partner max 1 µM)	-0.026	-0.0124	0.0582	-0.0468	0.0241	-0.0175	-0.0515	-0.0263	-0.0015	0.0179	-0.0082	-0.0442	-0.014	-0.0166	0.0086	-0.0117	-0.0743	-0.0115	-0.0659	1
Cn1cnc2c(F)c(Nc3ccc(Br)cc3Cl)c(C(=O)NOCCO)cc21 [Selumetinib] + C[C@@H]1COCCN1C2=NC(=NC(=C2)C3(CC3)[S@](=N)(=O)C)C4=C5C=CNC5=NC=C4 [AZD6738] (first compound max 10 µM, 7x7, partner max 10 µM)	-0.0288	0.0544	0.0615	0.0169	-0.0197	-0.0381	-0.0513	-0.0714	-0.049	0.0428	-0.0244	0.0345	-0.0785	-0.0014	-0.0415	0.0046	-0.0816	-0.0613	-0.0794	1
CC(=O)Nc1cccc(-n2c(=O)n(C3CC3)c(=O)c3c(Nc4ccc(I)cc4F)n(C)c(=O)c(C)c32)c1 [Trametinib] + Cc1nc(-c2cn3c(n2)-c2ccc(-c4cnn(C(C)(C)C(N)=O)c4)cc2OCC3)n(C(C)C)n1 [Taselisib] (first compound max 1 µM, 7x7, partner max 10 µM)	0.085	0.066	0.229	0.104	0.131	0.121	-0.062	-0.0328	0.158	0.104	0.0994	0.105	0.0141	0.112	0.132	0.11	0.095	0.0925	0.0113	1
CC1(C)CCC(CN2CCN(c3ccc(C(=O)NS(=O)(=O)c4ccc(NCC5CCOCC5)c([N+](=O)[O-])c4)c(Oc4cnc5[nH]ccc5c4)c3)CC2)=C(c2ccc(Cl)cc2)C1 [Venetoclax] + C1CN(CCC1(C(=O)N[C@@H](CCO)C2=CC=C(C=C2)Cl)N)C3=NC=NC4=C3C=CN4 [Capivasertib] (first compound max 1 µM, 7x7, partner max 3 µM)	-0.0211	0.0121	-0.0099	-0.0393	-0.0171	-0.0161	-0.0002	-0.0357	-0.016	-0.0102	-0.0377	-0.0281	-0.0113	-0.0125	-0.0358	-0.0296	-0.0591	-0.0354	-0.0635	1
CC1(C)CCC(CN2CCN(c3ccc(C(=O)NS(=O)(=O)c4ccc(NCC5CCOCC5)c([N+](=O)[O-])c4)c(Oc4cnc5[nH]ccc5c4)c3)CC2)=C(c2ccc(Cl)cc2)C1 [Venetoclax] + C=CCn1c(=O)c2cnc(Nc3ccc(N4CCN(C)CC4)cc3)nc2n1-c1cccc(C(C)(C)O)n1 [AZD1775] (first compound max 1 µM, partner max 1 µM)	-0.0261	-0.0226	-0.0535	0.0002	0.0384	-0.0347	-0.0252	-0.0373	-0.0932	-0.0656	0.041	-0.0205	0.0351	-0.0523	0.0604	-0.0642	0.0042	-0.0522	-0.0049	1
CC1(C)CCC(CN2CCN(c3ccc(C(=O)NS(=O)(=O)c4ccc(NCC5CCOCC5)c([N+](=O)[O-])c4)c(Oc4cnc5[nH]ccc5c4)c3)CC2)=C(c2ccc(Cl)cc2)C1 [Venetoclax] + CCN(CCO)CCCOc1ccc2c(Nc3cc(CC(=O)Nc4cccc(F)c4)[nH]n3)ncnc2c1 [AZD2811] (first compound max 1 µM, 7x7, partner max 1 µM)	-0.011	-0.0506	0.0484	0.0264	0.0079	-0.0234	0.0075	0.0108	-0.0176	0.0083	-0.0556	-0.0694	0.0194	-0.007	-0.0204	-0.0215	-0.0315	-0.0372	-0.0372	1
